Key:
[1] = tested on: A549; experiment: Decrease in cell cycle associated protein expression in human A549 cells assessed as fold change in CDK6 expression at 10 uM after 6 hrs by Western blot analysis (reference value: 0.7); type: functional
[2] = tested on: A549; experiment: Decrease in cell cycle associated protein expression in human A549 cells assessed as fold change in CDK4 expression at 10 uM after 36 hrs by Western blot analysis (reference value: 0.87); type: functional
[3] = target: CYP2C19 (Homo sapiens, UniProt P33261); experiment: Inhibition of human CYP2C19 assessed as residual activity at 10 uM measured after 15 mins relative to control; type: ADME; details: read-out: Activity
[4] = tested on: A549; experiment: Decrease in cell cycle associated protein expression in human A549 cells assessed as fold change in cyclin D3 expression at 10 uM after 48 hrs by Western blot analysis (reference value: 0.73 to 1.09); type: functional
[5] = Metabolic stability in human plasma assessed as parent compound remaining at 10 uM measured after 2 hrs; type: ADME, cell-free; details: read-out: Stabilty
[6] = Upregulation of p27KIP1 protein expression in human A549 cells assessed as fold change in expression at 10 uM after 6 hrs by Western blot analysis (reference value: 0.83); type: functional
[7] = Upregulation of p27KIP1 protein expression in human A549 cells assessed as fold change in expression at 10 uM after 36 hrs by Western blot analysis (reference value: 0.83); type: functional
[8] = tested on: A549; experiment: Decrease in cell cycle associated protein expression in human A549 cells assessed as fold change in cyclin D3 expression at 10 uM after 24 hrs by Western blot analysis (reference value: 1.09); type: functional
[9] = tested on: A549; experiment: Decrease in cell cycle associated protein expression in human A549 cells assessed as reduction in CDK4 expression at 10 uM by Western blot analysis; type: functional, cell-based; details: time 6-48 hrs, TDE = time-dependent effect
[10] = tested on: A549; experiment: Induction of cell cycle arrest in human A549 cells assessed as accumulation at G2/M phase at 5 uM after 48 hrs by flow cytometric analysis (reference value: 22.1 to 25.4 %); type: functional
[11] = tested on: A549; experiment: Induction of cell cycle arrest in human A549 cells assessed as accumulation at sub G1 phase at 5 uM after 48 hrs by flow cytometric analysis (reference value: 1.9 to 4.9%); type: functional
[12] = tested on: A549; experiment: Upregulation of p27KIP1 protein expression in human A549 cells after 48 hrs by Western blot analysis; type: functional, cell-based; details: dose 2.5-10 µM
[13] = tested on: A549; experiment: Decrease in cell cycle associated protein expression in human A549 cells assessed as fold change in cyclin D1 expression at 2.5 uM after 48 hrs by Western blot analysis (reference value: 0.39); type: functional
[14] = Upregulation of p27KIP1 protein expression in human A549 cells assessed as fold change in expression at 10 uM after 12 hrs by Western blot analysis (reference value: 0.83); type: functional
[15] = tested on: A549; experiment: Potentiation of cisplatin-induced cell cycle arrest in human A549 cells assessed as accumulation at sub G1 phase at 10 uM in presence of cisplatin after 48 hrs by flow cytometric analysis (reference value: 17%); type: functional
[16] = tested on: A549; experiment: Decrease in cell cycle associated protein expression in human A549 cells assessed as reduction in cyclin E expression after 48 hrs by Western blot analysis; type: functional, cell-based; details: dose 2.5-10 µM
[17] = tested on: A549; experiment: Decrease in cell cycle associated protein expression in human A549 cells assessed as reduction in CDK2 expression at 10 uM by Western blot analysis; type: functional, cell-based; details: time 6-48 hrs, TDE = time-dependent effect
[18] = Solubility of the compound at pH 7.4; type: physicochemical; details: buffer
[19] = tested on: A549; experiment: Decrease in cell cycle associated protein expression in human A549 cells assessed as fold change in CDK2 expression at 10 uM after 36 hrs by Western blot analysis (reference value: 0.79); type: functional
[20] = Metabolic stability in human plasma assessed as parent compound remaining at 10 uM measured after 30 mins; type: ADME, cell-free; details: read-out: Stabilty
[21] = target: CYP2D6 (Homo sapiens, UniProt P10635); experiment: Inhibition of human CYP2D6 assessed as residual activity at 10 uM measured after 15 mins relative to control; type: ADME; details: read-out: Activity
[22] = tested on: A549; experiment: Decrease in cell cycle associated protein expression in human A549 cells assessed as fold change in cyclin D1 expression at 5 uM after 48 hrs by Western blot analysis (reference value: 0.39); type: functional
[23] = tested on: A549; experiment: Decrease in cell cycle associated protein expression in human A549 cells assessed as fold change in cyclin D3 expression at 10 uM after 36 hrs by Western blot analysis (reference value: 1.09); type: functional
[24] = Upregulation of p27KIP1 protein expression in human A549 cells assessed as fold change in expression at 10 uM after 24 hrs by Western blot analysis (reference value: 0.83); type: functional
[25] = tested on: A549; experiment: Potentiation of etoposide-induced cell cycle arrest in human A549 cells assessed as accumulation at G1 phase at 5 uM in presence of etoposide after 48 hrs by flow cytometric analysis (reference value: 36%); type: functional
[26] = target: CYP2C9 (Homo sapiens, UniProt P11712); experiment: Inhibition of human CYP2C9 assessed as residual activity at 10 uM measured after 15 mins relative to control; type: ADME; details: read-out: Activity
[27] = tested on: A549; experiment: Decrease in cell cycle associated protein expression in human A549 cells assessed as fold change in cyclin D1 expression at 10 uM after 12 hrs by Western blot analysis (reference value: 0.68); type: functional
[28] = tested on: A549; experiment: Induction of cell cycle arrest in human A549 cells assessed as accumulation at G2/M phase at 10 uM after 48 hrs by flow cytometric analysis (reference value: 22.1%); type: functional
[29] = tested on: A549; experiment: Decrease in cell cycle associated protein expression in human A549 cells assessed as reduction in cyclin D3 expression at 10 uM by Western blot analysis; type: functional, cell-based; details: time 6-48 hrs, TDE = time-dependent effect
[30] = tested on: A549; experiment: Induction of cell cycle arrest in human A549 cells assessed as accumulation at sub G1 phase at 10 uM after 48 hrs by flow cytometric analysis (reference value: 1.9%); type: functional
[31] = tested on: A549; experiment: Induction of cell cycle arrest in human A549 cells assessed as accumulation at G1 phase at 5 uM after 24 hrs by flow cytometric analysis (reference value: 53.1%); type: functional

CYP2D6, sequence (P10635 whole entry): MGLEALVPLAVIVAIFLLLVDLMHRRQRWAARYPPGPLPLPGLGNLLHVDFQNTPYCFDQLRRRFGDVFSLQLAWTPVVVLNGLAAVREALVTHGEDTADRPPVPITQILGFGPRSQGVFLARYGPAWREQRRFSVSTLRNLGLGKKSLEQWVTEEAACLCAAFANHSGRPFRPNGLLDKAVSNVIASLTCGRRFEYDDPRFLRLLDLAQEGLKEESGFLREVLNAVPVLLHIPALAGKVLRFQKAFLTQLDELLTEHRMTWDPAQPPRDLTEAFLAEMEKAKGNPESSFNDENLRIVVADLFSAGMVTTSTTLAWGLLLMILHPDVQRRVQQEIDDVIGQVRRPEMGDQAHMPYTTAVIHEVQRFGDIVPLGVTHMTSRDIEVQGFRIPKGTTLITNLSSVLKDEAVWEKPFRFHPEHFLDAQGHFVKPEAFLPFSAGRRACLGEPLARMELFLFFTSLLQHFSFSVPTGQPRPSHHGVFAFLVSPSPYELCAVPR
CYP2C19, sequence (P33261 whole entry): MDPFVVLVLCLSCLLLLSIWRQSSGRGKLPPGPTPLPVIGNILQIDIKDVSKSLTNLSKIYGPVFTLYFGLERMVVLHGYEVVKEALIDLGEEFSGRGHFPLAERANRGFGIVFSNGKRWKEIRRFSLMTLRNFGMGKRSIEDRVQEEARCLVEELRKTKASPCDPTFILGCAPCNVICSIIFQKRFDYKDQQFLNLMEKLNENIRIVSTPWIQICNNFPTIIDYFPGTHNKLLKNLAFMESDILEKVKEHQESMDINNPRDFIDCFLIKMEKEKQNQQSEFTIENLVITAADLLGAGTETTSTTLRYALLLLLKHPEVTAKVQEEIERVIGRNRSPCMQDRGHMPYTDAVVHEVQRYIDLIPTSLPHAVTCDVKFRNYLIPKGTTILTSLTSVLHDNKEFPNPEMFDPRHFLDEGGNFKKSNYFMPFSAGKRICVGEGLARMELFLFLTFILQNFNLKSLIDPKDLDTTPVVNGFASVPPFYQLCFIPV
CYP2C9, sequence (P11712 whole entry): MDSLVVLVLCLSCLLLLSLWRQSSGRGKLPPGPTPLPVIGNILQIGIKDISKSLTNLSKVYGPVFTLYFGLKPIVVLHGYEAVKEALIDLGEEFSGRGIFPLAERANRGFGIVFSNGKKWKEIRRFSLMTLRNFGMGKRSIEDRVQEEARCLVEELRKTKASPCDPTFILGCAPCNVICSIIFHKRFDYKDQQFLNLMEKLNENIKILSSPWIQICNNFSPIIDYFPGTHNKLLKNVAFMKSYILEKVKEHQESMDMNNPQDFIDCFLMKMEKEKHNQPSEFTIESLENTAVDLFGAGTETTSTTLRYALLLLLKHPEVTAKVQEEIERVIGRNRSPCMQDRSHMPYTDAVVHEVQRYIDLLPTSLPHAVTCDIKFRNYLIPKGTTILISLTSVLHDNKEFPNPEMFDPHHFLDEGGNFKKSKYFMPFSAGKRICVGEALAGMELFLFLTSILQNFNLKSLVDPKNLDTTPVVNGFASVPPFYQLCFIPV

Q: Which results are given for `CN(C)C(=O)NCCCN(C)C1=Nc2ccccc2C(CC(=O)NCc2ccc(F)cc2)N1c1ccc(C2CCCCC2)cc1` (stereo unspecified)?
A: fold change (FC) [1]: 0.7; fold change (FC) [2]: 0.79; activity at 0.25 h, 10 µM [3]: 55.8%; fold change (FC) [4]: 0.55; remaining at 2 h, 10 µM [5]: 57.6%; fold change (FC) [6]: 0.3; fold change (FC) [7]: 1.52; fold change (FC) [8]: 0.51; Activity [9]: Tde; Activity [10]: 14.3%; Activity [11]: 1%; Activity [12]: Dose-dependent effect; fold change (FC) [13]: 0.43; fold change (FC) [14]: 0.65; Activity [15]: 52.3%; Activity [16]: Dose-dependent effect; Activity [17]: Tde; solubility [18]: < 1000 µg/mL; fold change (FC) [19]: 0.71; remaining at 0.5 h, 10 µM [20]: 113%; activity at 0.25 h, 10 µM [21]: 78.3%; fold change (FC) [22]: 0.5; fold change (FC) [23]: 0.96; fold change (FC) [24]: 1.05; Activity [25]: 35.6%; activity at 0.25 h, 10 µM [26]: 89.8%; fold change (FC) [27]: 0.35; Activity [28]: 10.9%; Activity [29]: Tde; Activity [30]: 4%; Activity [31]: 63.6%
